The text below walks through data of ChEMBL document CHEMBL1201862, “PubChem BioAssay data set” (2004).

SMILES strings stand for the structures.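 Protocol summary: plate cells (96-well), add compound at 5 concentrations, incubate 48 h, interpolate endpoints linearly. GI50: concentration for 50% inhibition of growth.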 The source made the active and inactive calls. No stated cut-off is given here; in the data, active = GI50 up to about 1.1 µM and inactive = higher.

Among the test systems are UACC-62; A549; SK-MEL-28; HCT-15; HT-29; SF-539; EKVX; IGROV-1; ACHN; COLO 205; SNB-19; SF-268; SK-MEL-2; SK-MEL-5; SN12C; OVCAR-5; HCT-116; HL-60.
Common to all, as to assay: DTP human tumour cell line panel, 48 h

By GI50 is commonly meant the concentration giving 50% growth inhibition.

Regarding `CN1C(=N\S(=O)(=O)c2ccc(Cl)cc2)/C(=N/N=P(c2ccccc2)(c2ccccc2)c2ccccc2)c2ccccc21`, the GI50 with UACC-62 is > 100 µM (inactive); with A549 it was 95.7 µM (inactive); in the test with SK-MEL-28 it was > 100 µM (inactive); with HCT-15, more than 100 µM; with HT-29, > 100 µM (inactive); with SF-539, > 100 µM (inactive). Further, the GI50 in the test on EKVX, in the test with IGROV-1, in the test with ACHN, with COLO 205, in the test on SNB-19 and in the test with SF-268 was > 100 µM (inactive) in each case. Further, the GI50 with SK-MEL-2, with SK-MEL-5, in the test on SN12C, with OVCAR-5 and with HCT-116 was > 100 µM (inactive) throughout.

For the molecule `COc1nc(N)c(NC(C)=O)c(=O)n1C`, the GI50 is > 100 µM (inactive) with A549; > 100 µM (inactive) with SK-MEL-28; more than 100 µM in the test with HCT-15; > 100 µM (inactive) in the test with HT-29; > 100 µM (inactive) in the test with SF-539; > 100 µM (inactive) in the test with EKVX. Also, the GI50 in the test on IGROV-1, in the test on ACHN, in the test on COLO 205, with SNB-19, with SF-268 and with HL-60 was > 100 µM (inactive) in each case. For the same molecule, the GI50 in the test with SK-MEL-2, with SN12C, in the test with OVCAR-5 and with HCT-116 was > 100 µM (inactive) throughout.

For `CC1(C)OC(C(N)=O)=C(C(N)=O)O1`, the GI50 in the test with UACC-62 was > 100 µM (inactive); in the test with A549 it was > 100 µM (inactive); in the test on SK-MEL-28, > 100 µM (inactive); in the test with HCT-15, more than 100 µM; in the test on HT-29, > 100 µM (inactive); in the test with SF-539, > 100 µM (inactive). For the same molecule, the GI50 with EKVX, in the test on IGROV-1, in the test on ACHN, with COLO 205, in the test with SNB-19 and in the test on SF-268 was > 100 µM (inactive) throughout. In addition, the GI50 in the test with HL-60, with SK-MEL-2, in the test with SN12C, in the test on OVCAR-5 and in the test on HCT-116 was > 100 µM (inactive) throughout.

Turning to `CC1CCCP(=O)(c2ccccc2)CC1` (centres undefined), the GI50 with UACC-62 was > 100 µM (inactive); in the test on A549, > 100 µM (inactive); with SK-MEL-28, > 100 µM (inactive); in the test on HCT-15, more than 100 µM; in the test with HT-29, > 100 µM (inactive); in the test on SF-539 it was > 100 µM (inactive). In addition, the GI50 in the test on EKVX, in the test on IGROV-1, in the test on ACHN, in the test on COLO 205, in the test with SNB-19 and with SF-268 was > 100 µM (inactive) throughout. The GI50 in the test on SK-MEL-2, with SK-MEL-5, with SN12C and in the test on OVCAR-5 was > 100 µM (inactive) in each case.

Consider `COc1ccc(C(=O)C(C(=O)C(=O)NCCCNC(=O)C(=O)C(C(=O)c2ccc(OC)cc2)c2ccc(OC)cc2)c2ccc(OC)cc2)cc1` (centres undefined), for which the GI50 in the test with UACC-62 was > 100 µM (inactive); in the test with A549 it was > 100 µM (inactive); in the test with SK-MEL-28 it was > 100 µM (inactive); with HCT-15, more than 100 µM; with HT-29 it was > 100 µM (inactive); in the test on SF-539, > 100 µM (inactive). The GI50 with EKVX, in the test with IGROV-1, in the test on COLO 205, with SNB-19, with SF-268 and with HL-60 was > 100 µM (inactive) in each case. For the same molecule, the GI50 in the test with SK-MEL-2, in the test with OVCAR-5 and with HCT-116 was > 100 µM (inactive) throughout.

Turning to `COC1(OC)CCC2(C)OC(c3ccccc3)C1O2` (centres undefined), the GI50 in the test with UACC-62 was > 100 µM (inactive); with A549, > 100 µM (inactive); in the test with SK-MEL-28 it was > 100 µM (inactive); in the test on HCT-15, more than 100 µM; in the test on HT-29 it was > 100 µM (inactive); in the test on SF-539 it was > 100 µM (inactive). In addition, the GI50 in the test with EKVX, with IGROV-1, in the test with ACHN, with COLO 205, in the test with SNB-19 and in the test with SF-268 was > 100 µM (inactive) throughout. Moreover, the GI50 in the test with HL-60, with SK-MEL-2, with SN12C, in the test on OVCAR-5 and in the test with HCT-116 was > 100 µM (inactive) throughout.

With `[O-]c1on[n+]2c1c(Nc1ccc(Cl)cc1)nc1ccccc12`, the GI50 with UACC-62, with A549, with SK-MEL-28, in the test with HT-29, in the test with SF-539 and with EKVX was > 100 µM (inactive) each time. The GI50 in the test on IGROV-1, with ACHN, in the test on COLO 205, with SNB-19, in the test on SF-268 and in the test with HL-60 was > 100 µM (inactive) throughout. For the same molecule, the GI50 in the test with SK-MEL-5, in the test on SN12C, with OVCAR-5 and with HCT-116 was > 100 µM (inactive) each time.

As for `Cc1cc(Cl)ccc1NC(=O)CCCC(=O)C(C(=O)c1ccccc1)c1ccccc1` (centres undefined), the GI50 with UACC-62 was > 100 µM (inactive); with HCT-15, more than 100 µM; in the test with HT-29, > 100 µM (inactive); in the test with IGROV-1, > 100 µM (inactive); in the test on ACHN, > 100 µM (inactive); in the test on COLO 205, > 100 µM (inactive). Besides, the GI50 in the test with SF-268, in the test with HL-60, in the test with SK-MEL-2, in the test on SN12C and in the test with OVCAR-5 was > 100 µM (inactive) each time.

Regarding `C/C=C1/C(=Cc2[nH]c(C=c3[nH]/c(=C/C4=NC(=O)C(CC)=C4C)c(C)c3CCC(=O)O)c(CCC(=O)O)c2C)NC(=O)C1C` (centres undefined), the GI50 in the test with UACC-62 was 8 µM (inactive); in the test on A549 it was 10.5 µM (inactive); with SK-MEL-28, 47.6 µM (inactive); with HCT-15 it was 2.58 µM; with HT-29, 5.11 µM (inactive); in the test with SF-539, 6.4 µM (inactive). In addition, the GI50 in the test on EKVX is 30.6 µM (inactive); with IGROV-1, 3.38 µM (inactive); in the test on ACHN it was 13.7 µM (inactive); in the test on COLO 205, 18.1 µM (inactive); in the test with SNB-19 it was > 50 µM (inactive); with SF-268, 7.89 µM (inactive). The GI50 with HL-60 is 7.59 µM (inactive); with SK-MEL-2, 9.08 µM (inactive); with SN12C it was 3.3 µM (inactive); in the test with OVCAR-5 it was 8.49 µM (inactive); in the test on HCT-116 it was 2.13 µM (inactive).

`COc1cc(/C=C2\CCc3ccccc3C2=O)ccc1O`: the GI50 is > 10 µM (inactive) in the test on UACC-62; 22.1 µM (inactive) in the test with A549; 21.1 µM (inactive) in the test with SK-MEL-28; 22.4 µM in the test with HCT-15; 18.2 µM (inactive) with HT-29; 16.1 µM (inactive) in the test with SF-539. Besides, the GI50 in the test with EKVX is 25.4 µM (inactive); in the test with IGROV-1, 34.3 µM (inactive); in the test on ACHN it was 26.4 µM (inactive); in the test with SNB-19, 14.6 µM (inactive); in the test with SF-268, 27.1 µM (inactive); in the test with HL-60 it was 4.24 µM (inactive). In addition, the GI50 was 17.7 µM (inactive) with SK-MEL-5, 22.4 µM (inactive) in the test with SN12C and 14.2 µM (inactive) in the test with OVCAR-5.

Turning to `COc1ccc(NC(=O)CSc2nnc(Cc3ccccc3)o2)cc1`, the GI50 was > 100 µM (inactive) in the test on UACC-62; > 100 µM (inactive) in the test on A549; > 100 µM (inactive) in the test on SK-MEL-28; more than 100 µM in the test on HCT-15; 74.1 µM (inactive) in the test with HT-29; > 100 µM (inactive) in the test on SF-539. Moreover, the GI50 with IGROV-1 is > 100 µM (inactive); in the test on ACHN, > 100 µM (inactive); with COLO 205 it was 94.8 µM (inactive); in the test on SNB-19 it was 97.7 µM (inactive); in the test with SF-268 it was 88.1 µM (inactive); with SK-MEL-2, > 100 µM (inactive). Moreover, the GI50 in the test on SK-MEL-5 was 85.1 µM (inactive); in the test with SN12C it was > 100 µM (inactive); with OVCAR-5, > 100 µM (inactive); with HCT-116 it was > 100 µM (inactive).

Regarding `CC(=O)N[C@@H]1C(O)CN2C(=O)C(=O)O[C@H](C(O)CO)[C@@H]12` (some centres undefined), the GI50 in the test with A549, in the test with SK-MEL-28, in the test with HT-29, with SF-539, in the test on EKVX and with IGROV-1 was > 100 µM (inactive) in each case. Further, the GI50 in the test with ACHN, with COLO 205, with SNB-19, in the test with SF-268, in the test on HL-60 and in the test with SK-MEL-2 was > 100 µM (inactive) throughout. For the same molecule, the GI50 in the test with OVCAR-5 and with HCT-116 was > 100 µM (inactive) each time.

As to `Cc1nc(-n2nc(-c3ccccc3)cc2-c2ccccc2)sc1C(=O)/C=C/c1ccc(Cl)c(Cl)c1`, the GI50 with UACC-62 is 4.89 µM (inactive); in the test on A549, 25.6 µM (inactive); with SK-MEL-28, 31.3 µM (inactive); in the test with HCT-15 it was 15.9 µM; in the test on HT-29 it was > 10 µM (inactive); with SF-539, 18.3 µM (inactive). Besides, the GI50 in the test with EKVX was 27 µM (inactive); in the test on IGROV-1 it was 12.1 µM (inactive); with ACHN, 23.7 µM (inactive); with COLO 205, 28.7 µM (inactive); in the test on SNB-19, 16.3 µM (inactive); with SF-268, 33.1 µM (inactive). Further, the GI50 in the test on HL-60 is 14 µM (inactive); in the test on SK-MEL-2 it was 41.7 µM (inactive); in the test with SN12C it was 15.7 µM (inactive); in the test with OVCAR-5, 18.8 µM (inactive); in the test on HCT-116, 26.7 µM (inactive).
